Measurements published in PMC10671431, “New Derivatives of N-Hydroxybutanamide: Preparation, MMP Inhibition, Cytotoxicity, and Antitumor Activity” (International Journal of Molecular Sciences, 2023).

Legend:
[1] = system: FetMSC; assay: Cytotoxicity, MTT test; assay type: cell-based, human
Experimental: (§1) Cell culture. A-172 (human glioblastoma cells), HepG2 (human hepatocellular carcinoma cells), M-HeLa (human cervical adenocarcinoma cells, M subclone), Vero (African green monkey kidney epithelial cells), and FetMSC (human embryonic mesenchymal stem cells) were purchased from the Russian Collection of Cell Cultures of Vertebrates (Institute of Cytology RAS, St. Petersburg, Russia). The U-251 MG cell line (human glioblastoma-astrocytoma) was purchased from the European Collection of Authenticated Cell Cultures (Salisbury, UK). All cells were grown at 37 °C in an atmosphere of 5% CO2. A-172 and Vero cells were cultured in DMEM medium (PanEco, Moscow, Russia). HepG2, HeLa, and U-251 MG cells were cultured in EMEM medium (PanEco). FetMSC cells were cultured in F12/DMEM medium (PanEco). All incubation media were supplemented with 10% fetal calf serum (BioWest, Nuaillé, France), 50 U/mL penicillin, and […] streptomycin (PanEco). Additionally, media for HeLa, HepG2, and U-251 MG cells were supplemented with 2 mM glutamine (PanEco) and 1% essential amino acids (PanEco), media for A-172 and Vero cells were supplemented with 4 mM glutamine, and the medium for FetMSC cells was supplemented with 3 mM glutamine. The medium for U-251 MG cells was additionally supplemented with 1 mM sodium pyruvate (PanEco).
(§2) Cytotoxicity studies. The cytotoxicity of the compounds was assessed using the MTT test. Cells were seeded into 96-well plates at varying concentrations of 5 × 10^4 cells/mL (A-172, Vero and HeLa), 7 × 10^4 cells/mL (HepG2 and U-251 MG), and 10 × 10^4 cells/mL (FetMSC). The studied compounds were added to the incubation medium 24 h after seeding at concentrations ranging from 7.8 μM to 500 μM. All compounds were dissolved in DMSO and diluted with the incubation medium to their final concentrations just before use. The incubation medium in wells was aspirated and replaced with medium containing the studied compounds. The final concentration of DMSO in all samples was 0.1%. Control samples were treated with 0.1% DMSO. After 72 h of exposure, 3-(4,5-dimethylthiazol-2-yl)-2,5-diphenyl-2H-tetrazolium bromide (MTT) (Dia-M, Moscow, Russia) was added to the incubation medium at a concentration of 0.5 mg/mL. The resulting MTT-formazan crystals were dissolved in DMSO. The optical density was measured at 570 nm with a background wavelength of 620 nm using a Spark 10M plate reader. IC50 values were determined using a median effect analysis from the dose–effect relationships.

[2] = system: HepG2; assay: Cytotoxicity, MTT test; assay type: cell-based, human; settings: Homo sapiens, HepG2, 72 h of exposure
Experimental: as §1, §2

[3] = system: HeLa; assay: Cytotoxicity, MTT test; assay type: cell-based, human; settings: Homo sapiens, HeLa, 72 h of exposure
Experimental: as §1, §2

[4] = system: A-172; assay: Cytotoxicity, MTT test; assay type: cell-based, human; settings: Homo sapiens, A 172, 72 h of exposure
Experimental: as §1, §2

[5] = system: B16 melanoma; assay: Antimetastatic activity in vivo, lung metastases; design: species or system mouse
Experimental: (§3) Antitumor activity in vivo. The B16 mouse melanoma was used as a tumor model. The B16 melanoma tumor strain was induced in male BDF1 mice by subcutaneous inoculation of 0.2–0.5 mL of a suspension of tumor tissue in medium 199 at intervals of 12–16 days. For the experiments, BDF1 mice were inoculated with 0.3 mL of a suspension of tumor tissue diluted in a 0.9% NaCl solution at a ratio of 1:5 subcutaneously on the right side.
(§4) Compound 4 was dissolved in a 0.9% NaCl solution with 1% DMSO. […] Control animals were injected intraperitoneally with 1% DMSO in saline (0.9% NaCl) in the same volumes as the test compounds.
And MNMcont. are the mean number of metastases in the experimental and control groups, respectively.

[6] = Cytotoxicity, MTT test, statements on all cell lines studied; assay type: cell-based; settings: human, African green monkey, 72 h of exposure, summary over cell lines, read-out: cytotoxicity IC50, cells in general
Experimental: as §1, §2

[7] = system: B16 melanoma; assay: Antitumor activity in vivo, tumor growth; design: species or system mouse; settings: BDF1 mice, i.p., CP 100 mg/kg days 2, 7, cPt 4 mg/kg days 2–9, 4 300 mg/kg days 2–9
Experimental: as §3, §4
Tumor growth was monitored on days 0, 6, 8, 10, 13, 15, 17, and 20 by measuring the tumor size with a digital caliper. The mean tumor diameter was calculated using the formula:D = 3√a × b × c,(2) where a, b, and c are mutually perpendicular tumor diameters.

[8] = biological target: T1, MMP-2 (Homo sapiens, UniProt P08253); assay: MMP activity assay, fluorogenic substrate (MMP Inhibitor Profiling Kit); assay type: biochemical
T1 construct: the BML- prefix points to Enzo Life Sciences, own knowledge BML-AK308
Experimental: (§5) Determination of MMP activity. A fluorescently labeled substrate probe containing a fluorescent label and a fluorescence quencher, was utilized for this study. […] Enzyme activity was assessed using the MMP Inhibitor Profiling Kit (Product # BML-AK308, New York, NY, USA) according to the manufacturer’s recommendations. The nonspecific inhibitor NNGH was used as a positive control. The fluorescence of the fluorogenic substrate OmniMMP^TM RED was measured at wavelengths Ex/Em = 545/576 nm using a Spark 10M multimode plate reader (Tecan, Zurich, Switzerland). Reaction rates were expressed in relative fluorescence units (RFUs) per minute. The activity of MMPs in the presence of the studied compounds was determined as follows:Activity, % = (Vinh/Vcont) × 100,(1) where V is the initial reaction rate (RFUs/min) in the presence (Vinh) and absence (Vcont) of the studied compounds.
(§6) All tested compounds were dissolved in DMSO. The final concentration of DMSO in all samples was 0.1%. Control samples were treated with 0.1% DMSO.

[9] = biological target: T2, MMP-14 (Homo sapiens, UniProt P50281); assay: as above; assay type: biochemical
T2 construct: the BML- prefix points to Enzo Life Sciences, own knowledge BML-AK308
Experimental: as §5, §6

[10] = biological target: T3, MMP-3 (Homo sapiens, UniProt P08254); assay: as above; assay type: biochemical
T3 construct: the BML- prefix points to Enzo Life Sciences, own knowledge BML-AK308
Experimental: as §5, §6

[11] = biological target: T4, MMP-9 (Homo sapiens, UniProt P14780); assay: as above; assay type: biochemical
T4 construct: the BML- prefix points to Enzo Life Sciences, own knowledge BML-AK308
Experimental: as §5, §6

[12] = system: Vero; assay: Cytotoxicity, MTT test; assay type: cell-based, African green monkey; settings: Chlorocebus sabaeus, Vero, 72 h of exposure
Experimental: as §1, §2

[13] = lungs, B16 melanoma, BDF1 mice, doses as in Table 5
[14] = concentration of 1 μM (Figure 3)

T3 sequence (P08254 100-272 limits assumed): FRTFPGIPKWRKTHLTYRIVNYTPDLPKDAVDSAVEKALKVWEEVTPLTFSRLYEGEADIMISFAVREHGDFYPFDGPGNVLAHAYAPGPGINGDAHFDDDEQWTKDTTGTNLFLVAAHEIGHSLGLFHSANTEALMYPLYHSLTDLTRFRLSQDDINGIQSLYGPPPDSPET
T1 sequence (P08253 110-446 limits assumed): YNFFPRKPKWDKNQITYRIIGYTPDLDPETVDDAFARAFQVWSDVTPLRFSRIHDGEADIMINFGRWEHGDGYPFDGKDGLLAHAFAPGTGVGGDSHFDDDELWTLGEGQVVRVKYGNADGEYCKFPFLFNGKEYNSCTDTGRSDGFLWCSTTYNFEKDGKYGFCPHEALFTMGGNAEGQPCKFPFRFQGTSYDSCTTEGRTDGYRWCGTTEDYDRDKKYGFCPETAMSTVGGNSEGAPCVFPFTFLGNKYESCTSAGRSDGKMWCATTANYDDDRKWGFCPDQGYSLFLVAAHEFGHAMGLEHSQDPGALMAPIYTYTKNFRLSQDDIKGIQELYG
T4 sequence (P14780 107-444 limits assumed): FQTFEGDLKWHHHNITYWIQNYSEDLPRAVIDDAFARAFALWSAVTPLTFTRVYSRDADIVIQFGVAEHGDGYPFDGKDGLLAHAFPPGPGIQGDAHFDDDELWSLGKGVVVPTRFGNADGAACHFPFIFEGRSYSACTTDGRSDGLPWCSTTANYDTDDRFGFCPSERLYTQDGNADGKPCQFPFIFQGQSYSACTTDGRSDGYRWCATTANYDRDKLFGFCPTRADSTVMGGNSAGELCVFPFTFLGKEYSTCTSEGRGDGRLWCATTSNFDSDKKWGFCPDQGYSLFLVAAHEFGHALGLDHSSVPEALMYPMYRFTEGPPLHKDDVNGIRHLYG

**Q.** Which IC50 ([1]; Homo sapiens, 72 h of exposure, MTT) does the source give for `O=C(CCC(=O)Nc1ccc(I)cc1)NO` [Compound 4, N^1-hydroxy-N^4-(4-iodophenyl)butanediamide] here?
**A.** Its IC50 is over 500 µM.

**Q.** And the “toxicity to FetMSC cells” value ([1]; only at the highest concentration)?
**A.** Its value is “some toxicity”.

**Q.** What about the IC50 [2] of the same molecule?
**A.** The IC50 was 488 ± 23.9 µM.

**Q.** And the IC50 [3]?
**A.** Its IC50 is 297 ± 15.7 µM.

**Q.** What about the IC50 [4] of the same molecule?
**A.** The IC50 was 418 ± 17.4 µM.

**Q.** What about the “reduction of the number of animals with metastases in the group” value ([5]; 300 mg/kg i.p. days 2–9) of the same molecule?
**A.** The value was 50%.

**Q.** What about the “% Inhibition of Metastases” value [5, 13] of the same molecule?
**A.** The value was 88.6%.

**Q.** What about the “Mean Number of Metastases per Mouse” value [5, 13] of the same molecule?
**A.** The value was 1.3 ± 0.9.

**Q.** What about the “Metastasis Rate, %” value [5, 13] of the same molecule?
**A.** The value was 50%.

**Q.** And the “Number of Animals without Metastases” value ([5]; of 6 animals in the group, lungs, B16 melanoma, BDF1 mice, doses as in Table 5)?
**A.** The value was 3.

**Q.** And the IC50 at 72 h [6]?
**A.** Its IC50 at 72 h is over 100 µM.

**Q.** What about the “Tumor Growth Inhibition, % Day 10” value [7] of the same molecule?
**A.** The value was 34.5%.

**Q.** And the “Tumor Growth Inhibition, % Day 13” value [7]?
**A.** The value was 61.5%.

**Q.** What about the “Tumor Growth Inhibition, % Day 15” value [7] of the same molecule?
**A.** Its value is 50.4%.

**Q.** And the “Tumor Growth Inhibition, % Day 17” value [7]?
**A.** Its value is 44.6%.

**Q.** And the “Tumor Growth Inhibition, % Day 20” value [7]?
**A.** The value was 42.3%.

**Q.** What about the inhibition at 1 µM [8, 14] of the same molecule?
**A.** The inhibition at 1 µM was about 50%.

**Q.** And the IC50 ([8]; read-out: MMP-inhibiting activity IC50, MMP-2)?
**A.** The IC50 was 1.26 ± 0.01 µM.

**Q.** And the inhibition at 1 µM [9, 14]?
**A.** The inhibition at 1 µM was about 50%.

**Q.** What about the IC50 ([9]; read-out: MMP-inhibiting activity IC50, MMP-14) of the same molecule?
**A.** The IC50 was 1.49 ± 0.01 µM.

**Q.** And the “effect on MMP-3 activity” value [10, 14]?
**A.** The value was “no effect”.

**Q.** And the “concentration with significant effect on MMP-3 activity” value ([10]; dose–effect relationship (Figure 4))?
**A.** The value was “approximately 10 μM”.

**Q.** What about the IC50 ([10]; read-out: MMP-inhibiting activity IC50, MMP-3) of the same molecule?
**A.** The IC50 was over 10 µM.

**Q.** And the inhibition at 1 µM [11, 14]?
**A.** Its inhibition at 1 µM is about 50%.

**Q.** And the IC50 ([11]; read-out: MMP-inhibiting activity IC50, MMP-9)?
**A.** Its IC50 is 1.06 ± 0.01 µM.

**Q.** What about the IC50 [12] of the same molecule?
**A.** The IC50 was over 500 µM.
